# Where two headings read alike, the source gives them in different places.
# Columns and labels:
# [1] = molecular target: T1, human RNR (purified R1 and R2 subunits) (Homo sapiens, UniProt P23921+P31350); test: In vitro measurement of human RNR inhibitory activity (conversion of CDP to dCDP, HPLC); type: biochemical; settings: 100 μM CDP, 37° C., 30 minutes, read-out: RNR Inhibition (IC50)
# T1 construct: made in house; host or cells: Escherichia coli BL21(λDE3)pLysS, plasmids pETR1 and pETR2 (pET3a backbone)
# T1 sequence (P23921 1-792): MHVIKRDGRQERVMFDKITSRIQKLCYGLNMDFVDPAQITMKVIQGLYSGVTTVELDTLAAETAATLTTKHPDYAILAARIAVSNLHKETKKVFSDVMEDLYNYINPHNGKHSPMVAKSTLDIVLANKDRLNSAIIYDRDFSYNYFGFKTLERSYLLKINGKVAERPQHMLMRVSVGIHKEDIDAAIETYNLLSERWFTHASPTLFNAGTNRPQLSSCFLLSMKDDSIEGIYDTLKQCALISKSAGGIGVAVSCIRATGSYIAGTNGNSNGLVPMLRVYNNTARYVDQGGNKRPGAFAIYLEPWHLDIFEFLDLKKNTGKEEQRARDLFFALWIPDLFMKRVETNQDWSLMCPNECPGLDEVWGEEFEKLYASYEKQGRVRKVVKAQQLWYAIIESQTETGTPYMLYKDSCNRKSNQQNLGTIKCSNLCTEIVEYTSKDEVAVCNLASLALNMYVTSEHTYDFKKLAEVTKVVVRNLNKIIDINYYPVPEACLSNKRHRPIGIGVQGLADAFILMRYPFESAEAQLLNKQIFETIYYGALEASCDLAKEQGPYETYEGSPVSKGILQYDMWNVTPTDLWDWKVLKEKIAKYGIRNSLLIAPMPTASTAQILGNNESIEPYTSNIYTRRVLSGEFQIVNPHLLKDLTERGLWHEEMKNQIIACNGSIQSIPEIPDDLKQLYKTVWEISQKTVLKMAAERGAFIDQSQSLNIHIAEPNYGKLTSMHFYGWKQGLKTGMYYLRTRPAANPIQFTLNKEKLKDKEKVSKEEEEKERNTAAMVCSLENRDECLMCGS
# T1 sequence (P31350 1-389): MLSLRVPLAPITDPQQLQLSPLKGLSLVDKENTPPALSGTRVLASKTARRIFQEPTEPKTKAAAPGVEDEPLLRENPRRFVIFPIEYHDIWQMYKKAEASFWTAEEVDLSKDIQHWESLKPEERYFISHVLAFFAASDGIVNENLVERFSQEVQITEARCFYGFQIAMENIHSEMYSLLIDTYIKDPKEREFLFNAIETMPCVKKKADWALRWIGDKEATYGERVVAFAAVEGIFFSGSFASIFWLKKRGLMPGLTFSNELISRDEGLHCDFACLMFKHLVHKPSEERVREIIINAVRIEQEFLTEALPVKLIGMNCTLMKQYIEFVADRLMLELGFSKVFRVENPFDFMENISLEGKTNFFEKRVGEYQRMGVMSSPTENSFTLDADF
# HeLa S3 cells = test: Test for growth inhibition of HeLa S3 cells; type: cell-based; settings: HeLa S3 cells, 72 hours with test compound, Cell Proliferation Kit II, read-out: Cell growth inhibition (IC50)
# Description: Test for Growth Inhibition of Hela S3 Cells
# HeLa S3 cells prepared at 1×10^4 cells/ml in MEM culture medium containing 10% fetal bovine serum and 2 mM glutamine were added to each well of a 96-well microtiter plate (0.1 ml for each well). The cells were cultured at 37° C. in a CO2 incubator for 24 hours, and then 0.05 ml of test compound appropriately diluted with the above medium was added to each well, and then the mixture was cultured at 37° C. in a CO2 incubator for 72 hours. After the culture supernatant was removed, each well was washed with 0.1 ml of PBS buffer twice, and 0.1 ml of the aforementioned medium was added to each well again.
# Cell Proliferation Kit II (Boehringer Mennheim) was used for measurement of cell number in each well. After a coloring reaction reagent was added, the plate was warmed to 37° C. in a CO2 incubator for 3 hours. Then, absorbances at 490 nm and 655 nm were measured by a microplate reader, and a value (difference of absorbance) was calculated for each well by subtracting the absorbance at […] from the absorbance at 490 nm. By comparing the differences of absorbance for cells without treatment and cells treated with a test compound at a known concentration, a concentration of test compound which inhibited the cell growth by 50% was calculated, and the value obtained was determined as IC50. The values of RNR inhibitory activity obtained in Example 8, and the values of cell growth inhibitory activity obtained in Example 9 are shown in the following tables (the compound numbers used in the tables correspond to the compound numbers shown in the aforementioned tables).
compound,measurement,setting,value
O=C(c1ccncc1)N(CCSc1ccc(O)cc1)CCSc1ccc(O)cc1 [Compound 117],IC50,[1],1.69 µM
same,IC50,"HeLa S3 cells; Homo sapiens, HeLa S3, 72 h",2.72 µM
NC(=O)[C@H]1OC(N(CCSc2ccc(O)cc2)CCSc2ccc(O)cc2)[C@H](O)[C@@H](O)[C@@H]1O (some centres unmarked) [Compound 219],IC50,[1],3.51 µM
same,IC50,"HeLa S3 cells; Homo sapiens, HeLa S3, 72 h",25.2 µM
COCC(=O)Oc1ccc(SCCN(CCSc2ccc(OC(=O)COC)cc2)CC(N)=O)cc1 [Compound 220],IC50,[1],5.2 µM
same,IC50,"HeLa S3 cells; Homo sapiens, HeLa S3, 72 h",0.29 µM
O=C(N(CCSc1ccc(O)cc1)CCSc1ccc(O)cc1)N1CCCc2ccccc21 [Compound 57],IC50,[1],0.73 µM
same,IC50,"HeLa S3 cells; Homo sapiens, HeLa S3, 72 h",14.4 µM
O=C(CN(CCSc1ccc(O)cc1)CCSc1ccc(O)cc1)Nc1nccs1 [Compound 210],IC50,[1],5.91 µM
same,IC50,"HeLa S3 cells; Homo sapiens, HeLa S3, 72 h",2.82 µM
O=CN(CCSc1ccc(O)cc1)CCSc1ccc(O)cc1 [Compound 53],IC50,[1],1.05 µM
same,IC50,"HeLa S3 cells; Homo sapiens, HeLa S3, 72 h",1.71 µM
CCC(=O)N(CCSc1ccc(O)cc1)CCSc1ccc(O)cc1 [Compound 113],IC50,[1],4.77 µM
same,IC50,"HeLa S3 cells; Homo sapiens, HeLa S3, 72 h",3.8 µM
Oc1ccc(SCCN(CCSc2ccc(O)cc2)Cc2ccco2)cc1 [Compound 90],IC50,[1],2.03 µM
same,IC50,"HeLa S3 cells; Homo sapiens, HeLa S3, 72 h",6.38 µM
Oc1ccc(SCCNCCSc2ccc(O)cc2)cc1 [Compound 45],IC50,[1],3.64 µM
same,IC50,"HeLa S3 cells; Homo sapiens, HeLa S3, 72 h",5.64 µM
Oc1ccc(SCCOCCOCCSc2ccc(O)cc2)cc1 [Compound 163],IC50,[1],2.1 µM
same,IC50,"HeLa S3 cells; Homo sapiens, HeLa S3, 72 h",5.17 µM
O=C(CCN(CCSc1ccc(O)cc1)CCSc1ccc(O)cc1)N1CCCCC1 [Compound 108],IC50,[1],0.64 µM
same,IC50,"HeLa S3 cells; Homo sapiens, HeLa S3, 72 h",2.64 µM
O=C1N(CS(=O)(=O)CCSc2ccc(O)cc2)CCCN1CS(=O)(=O)CCSc1ccc(O)cc1 [Compound 7],IC50,[1],4.82 µM
same,IC50,"HeLa S3 cells; Homo sapiens, HeLa S3, 72 h",> 101 µM
Oc1ccc(SCc2cccc(CSc3ccc(O)cc3)n2)cc1 [Compound 1],IC50,[1],4.26 µM
same,IC50,"HeLa S3 cells; Homo sapiens, HeLa S3, 72 h",5.15 µM
NC(=O)CN(CCSc1ccc(O)cc1)CCSc1ccc(O)cc1 [Compound 224],IC50,HeLa S3 cells,0.4 µM
CCN(CC)CCN(CCSc1ccc(O)cc1)CCSc1ccc(O)cc1 [Compound 109],IC50,[1],2.36 µM
same,IC50,"HeLa S3 cells; Homo sapiens, HeLa S3, 72 h",38.9 µM
COCCN(CCSc1ccc(O)cc1)CCSc1ccc(O)cc1 [Compound 104],IC50,[1],2.11 µM
same,IC50,"HeLa S3 cells; Homo sapiens, HeLa S3, 72 h",1.74 µM
O=C(CN(CCSc1ccc(O)cc1)CCSc1ccc(O)cc1)NC(CO)CO [Compound 205],IC50,[1],1.19 µM
same,IC50,"HeLa S3 cells; Homo sapiens, HeLa S3, 72 h",7.32 µM
Oc1ccc(SCCOCCOCCOCCSc2ccc(O)cc2)cc1 [Compound 171],IC50,[1],8.01 µM
same,IC50,"HeLa S3 cells; Homo sapiens, HeLa S3, 72 h",30 µM
Oc1ccc(SCCOCOCCSc2ccc(O)cc2)cc1 [Compound 162],IC50,[1],1.7 µM
same,IC50,"HeLa S3 cells; Homo sapiens, HeLa S3, 72 h",3.7 µM
NC(=O)NCCN(CCSc1ccc(O)cc1)CCSc1ccc(O)cc1 [Compound 82],IC50,[1],1.42 µM
same,IC50,"HeLa S3 cells; Homo sapiens, HeLa S3, 72 h",1.3 µM
CC1(C)OC(CSc2ccc(O)cc2)C(CSc2ccc(O)cc2)O1 (centres unmarked) [Compound 183],IC50,[1],0.42 µM
same,IC50,"HeLa S3 cells; Homo sapiens, HeLa S3, 72 h",10.4 µM
O=C(N1CCCCC1)N(CCSc1ccc(O)cc1)CCSc1ccc(O)cc1 [Compound 125],IC50,[1],0.91 µM
same,IC50,"HeLa S3 cells; Homo sapiens, HeLa S3, 72 h",4.55 µM
O=C(N1CCOCC1)N(CCSc1ccc(O)cc1)CCSc1ccc(O)cc1 [Compound 124],IC50,[1],0.09 µM
same,IC50,"HeLa S3 cells; Homo sapiens, HeLa S3, 72 h",3.68 µM
Oc1ccc(SCCCCSc2ccc(O)cc2)cc1 [Compound 135],IC50,[1],0.43 µM
same,IC50,"HeLa S3 cells; Homo sapiens, HeLa S3, 72 h",6.02 µM
Oc1ccc(SCC=CCSc2ccc(O)cc2)cc1 [Compound 159],IC50,[1],0.69 µM
same,IC50,"HeLa S3 cells; Homo sapiens, HeLa S3, 72 h",6.89 µM
C=CCN(CCSc1ccc(O)cc1)CCSc1ccc(O)cc1 [Compound 74],IC50,[1],0.82 µM
same,IC50,"HeLa S3 cells; Homo sapiens, HeLa S3, 72 h",2 µM
CCN(CCSc1ccc(O)cc1)CCSc1ccc(O)cc1 [Compound 71],IC50,[1],1.23 µM
same,IC50,"HeLa S3 cells; Homo sapiens, HeLa S3, 72 h",3.94 µM
OC[C@H]1OC(N(CCSc2ccc(O)cc2)CCSc2ccc(O)cc2)[C@@H](O)[C@@H](O)[C@@H]1O (some centres unmarked) [Compound 214],IC50,[1],2.69 µM
same,IC50,"HeLa S3 cells; Homo sapiens, HeLa S3, 72 h",7.73 µM
Oc1ccc(SCCN(CCSc2ccc(O)cc2)CCC2OCCCO2)cc1 [Compound 194],IC50,[1],0.84 µM
same,IC50,"HeLa S3 cells; Homo sapiens, HeLa S3, 72 h",11.7 µM
N=C(N)N(CCSc1ccc(O)cc1)CCSc1ccc(O)cc1 [Compound 49],IC50,[1],5.45 µM
same,IC50,"HeLa S3 cells; Homo sapiens, HeLa S3, 72 h",16 µM
CS(=O)(=O)NCCN(CCSc1ccc(O)cc1)CCSc1ccc(O)cc1 [Compound 195],IC50,[1],0.55 µM
same,IC50,"HeLa S3 cells; Homo sapiens, HeLa S3, 72 h",3.16 µM
NCCN(CCSc1ccc(O)cc1)CCSc1ccc(O)cc1 [Compound 59],IC50,[1],5.73 µM
same,IC50,"HeLa S3 cells; Homo sapiens, HeLa S3, 72 h",5.81 µM
OCCOCCN(CCSc1ccc(O)cc1)CCSc1ccc(O)cc1 [Compound 199],IC50,[1],3.99 µM
same,IC50,"HeLa S3 cells; Homo sapiens, HeLa S3, 72 h",5.14 µM
Oc1ccc(SCCN(CCSc2ccc(O)cc2)Cc2cccc(O)c2)cc1 [Compound 93],IC50,[1],0.63 µM
same,IC50,"HeLa S3 cells; Homo sapiens, HeLa S3, 72 h",9.04 µM
Oc1ccc(SCCN(CCSc2ccc(O)cc2)Cc2ccccc2)cc1 [Compound 98],IC50,[1],3.36 µM
same,IC50,"HeLa S3 cells; Homo sapiens, HeLa S3, 72 h",15 µM
Oc1ccc(SCCN(CCSc2ccc(O)cc2)CCN2CCCCC2)cc1 [Compound 111],IC50,[1],1.85 µM
same,IC50,"HeLa S3 cells; Homo sapiens, HeLa S3, 72 h",11.4 µM
Oc1ccc(SCC(O)CSc2ccc(O)cc2)cc1 [Compound 156],IC50,[1],2.27 µM
same,IC50,"HeLa S3 cells; Homo sapiens, HeLa S3, 72 h",5.45 µM
Oc1ccc(SCCN(CCSc2ccc(O)cc2)Cc2cccs2)cc1 [Compound 89],IC50,[1],1.46 µM
same,IC50,"HeLa S3 cells; Homo sapiens, HeLa S3, 72 h",4.66 µM
O=C(NCCCSc1ccc(O)cc1)C1C2C=CC(C2)C1C(=O)NCCCSc1ccc(O)cc1 (centres unmarked) [Compound 191],IC50,[1],1.36 µM
same,IC50,"HeLa S3 cells; Homo sapiens, HeLa S3, 72 h",4.78 µM
O=C(CCN(CCSc1ccc(O)cc1)CCSc1ccc(O)cc1)N1CCOCC1 [Compound 107],IC50,[1],4.2 µM
same,IC50,"HeLa S3 cells; Homo sapiens, HeLa S3, 72 h",24.9 µM
CCN(CC)C(=O)CCN(CCSc1ccc(O)cc1)CCSc1ccc(O)cc1 [Compound 80],IC50,[1],0.74 µM
same,IC50,"HeLa S3 cells; Homo sapiens, HeLa S3, 72 h",1.43 µM
OCC(O)CN(CCSc1ccc(O)cc1)CCSc1ccc(O)cc1 (centres unmarked) [Compound 201],IC50,[1],2.49 µM
same,IC50,"HeLa S3 cells; Homo sapiens, HeLa S3, 72 h",4.29 µM
Oc1ccc(SCCN(CCSc2ccc(O)cc2)Cc2ccccc2O)cc1 [Compound 92],IC50,[1],0.89 µM
same,IC50,"HeLa S3 cells; Homo sapiens, HeLa S3, 72 h",2.14 µM
NC(=O)CN(CCSc1ccc(O)cc1)CCSc1ccc(O)cc1 [Compound 225],IC50,HeLa S3 cells,0.55 µM
